The values below come from US4843089A, “Antimycotic agent” (Bayer Aktiengesellschaft, priority 1984, dated 1989).

In assay [1] the test system is dermatophytes, molds and yeasts. Put plainly: Antimycotic in vitro activity, series dilution test (overall comparison with compound (B)). The class given is cell-based. The conditions noted are these: in words; versus compound (B) known from the prior art. As to the method: The in vitro tests were carried out in a series dilution test using germ inocular of on average 5×10^3 to 10^4 germs/ml of substrate. The nutrient medium used was (a) for dermatophytes and molds. Sabourand's milieu d'epreuve (b) for yeasts: meat extract/glucose broth. The incubation temperature was 28° C. to 37° C. and the incubation period was 24 to 96 hours for yeasts and 96 hours for dermatophytes and molds.

The test system of assay [2] is Candida. The assay is described as follows: Antimycotic in vivo activity (oral) on candidosis of mice. Details: species or system mice (SPF-CF1). The note with it: in words, 25-100 mg/kg, versus compounds (A) and (B). The protocol: Mice of the SPF-CF1 type were infected intravenously with 1-2×10^6 logarithmically growing Candida cells suspended in physiological saline solution. The animals were treated orally with in each case 25-100 mg of the products/kg of body weight one hour before and seven hours after infection. Untreated animals died 3 to 6 days after infection. The survival rate on the 6th day after infection was about 5% in the untreated control animals.

For assay [3], the system named is Trichophyton von mentagrophytes. The assay is described as follows: Antimicrobial in vivo activity (local), experimental trichophytosis in guinea pigs. The conditions noted are these: 0.1% strength solution, 1x daily.

As for `CON=CC(C)(C)C(O)(COc1ccc(Cl)cc1)Cn1cncn1` (stereo not shown) [Example 4], the “antimycotic action in vitro compared with compound (B)” value in assay [1] is on record as “better antimycotic action than compound (B)”. In addition, in assay [2], the “action against candidosis of mice compared with compounds (A) and (B)” value (from here on “action … compared with compounds (A) and (B)”) is “better action than compounds (A) and (B)”.

Take `CC(C)(C=O)C(O)(COc1ccc(-c2ccccc2)cc1)Cn1cncn1` (stereo not shown) [Example 5]: the “action … compared with compounds (A) and (B)” value in assay [2] was “better action than compounds (A) and (B)”.

Take `CC(C)(C=O)C(O)(CCc1ccc(Cl)cc1)Cn1cncn1` (stereo not shown) [Example 7]: the “antimycotic action in vitro compared with compound (B)” value in assay [1] is reported as “better antimycotic action than compound (B)”.

`CC(C)(C=O)C(O)(CCc1ccc(Cl)cc1Cl)Cn1cncn1` (stereo not shown) [Example 8]: the “action … compared with compounds (A) and (B)” value in assay [2] is “better action than compounds (A) and (B)”.

On to `CON=CC(C)(C)C(O)(C#Cc1ccc(Cl)cc1)Cn1cncn1` (stereo not shown) [Example 10], for which the “antimycotic action in vitro compared with compound (B)” value in assay [1] is listed as “better antimycotic action than compound (B)”. Besides, the “action … compared with compounds (A) and (B)” value in assay [2] is “better action than compounds (A) and (B)”.

With `CC(C)(C=O)C(O)(C#Cc1ccc(-c2ccccc2)cc1)Cn1cncn1` (stereo not shown) [Example 11], the “antimycotic action in vitro compared with compound (B)” value in assay [1] is recorded as “better antimycotic action than compound (B)”.

With `CON=CC(C)(C)C(O)(C#Cc1ccc(-c2ccccc2)cc1)Cn1cncn1` (stereo not shown) [Example 12], the “antimycotic action in vitro compared with compound (B)” value in assay [1] is reported as “better antimycotic action than compound (B)”. The “action … compared with compounds (A) and (B)” value in assay [2] is “better action than compounds (A) and (B)”.

As for `CON=CC(C)(C)C(O)(C#Cc1ccc(Cl)cc1Cl)Cn1cncn1` (stereo not shown) [Example 13], the “antimycotic action in vitro compared with compound (B)” value in assay [1] was “better antimycotic action than compound (B)”. For the same compound, the “action … compared with compounds (A) and (B)” value in assay [2] was “better action than compounds (A) and (B)”.

In the case of `CC(C)(C=O)C(O)(CCc1ccc(Cl)cc1)Cn1ccnc1` (stereo not shown) [Example 16], the “action … compared with compounds (A) and (B)” value in assay [2] is “better action than compounds (A) and (B)”.

In the case of `CON=CC(C)(C)C(O)(CSc1ccc(C(F)(F)F)c(Cl)c1)Cn1cncn1` (stereo not shown) [Example 17], the “antimycotic action in vitro compared with compound (B)” value in assay [1] was “better antimycotic action than compound (B)”.

Turning to `CON=CC(C)(C)C(O)(CSc1ccc(Br)cc1)Cn1cncn1` (stereo not shown) [Example 18], the “action (local) on experimental trichophytosis, in words” value (shortened to “action (local)”) in assay [3] is “good action”. Further, the “antimycotic action in vitro compared with compound (B)” value in assay [1] is “better antimycotic action than compound (B)”. In assay [2], the “action … compared with compounds (A) and (B)” value is “better action than compounds (A) and (B)”.

For the compound `CC(C)(C=O)C(O)(CSc1ccc(Br)cc1)Cn1cncn1` (stereo not shown) [Example 19], in assay [1], the “antimycotic action in vitro compared with compound (B)” value was “better antimycotic action than compound (B)”.

Consider `CON=CC(C)(C)C(O)(CSc1ccc(Cl)cc1)Cn1ccnc1` (stereo not shown) [Example 20], for which the “action (local)” value in assay [3] was “good action”. In assay [1], the “antimycotic action in vitro compared with compound (B)” value is listed as “better antimycotic action than compound (B)”. Also, the “action … compared with compounds (A) and (B)” value in assay [2] is “better action than compounds (A) and (B)”.

As to `CON=CC(C)(C)C(O)(CSc1ccc(Br)cc1)Cn1ccnc1` (stereo not shown) [Example 21], the “antimycotic action in vitro compared with compound (B)” value in assay [1] is listed as “better antimycotic action than compound (B)”.

On to `CON=CC(C)(C)C(O)(CCc1ccc(Cl)cc1)Cn1cncn1` (stereo not shown) [Example 22], for which, in assay [3], the “action (local)” value is on record as “good action”. Besides, in assay [1], the “antimycotic action in vitro compared with compound (B)” value is listed as “better antimycotic action than compound (B)”.

Regarding `CCCCON=CC(C)(C)C(O)(CCc1ccc(Cl)cc1)Cn1cncn1` (stereo not shown) [Example 23], in assay [1], the “antimycotic action in vitro compared with compound (B)” value was “better antimycotic action than compound (B)”. Also, the “action … compared with compounds (A) and (B)” value in assay [2] was “better action than compounds (A) and (B)”.

For the compound `CON=CC(C)(C)C(O)(COc1ccc(Cl)cc1Cl)Cn1cncn1` (stereo not shown) [Example 24], in assay [2], the “action … compared with compounds (A) and (B)” value was “better action than compounds (A) and (B)”.

`CC(C)(C=NOCc1ccc(Cl)cc1)C(O)(CCc1ccc(Cl)cc1)Cn1cncn1` (stereo not shown) [Example 28]: the “antimycotic action in vitro compared with compound (B)” value in assay [1] was “better antimycotic action than compound (B)”. Also, the “action … compared with compounds (A) and (B)” value in assay [2] was “better action than compounds (A) and (B)”.

Turning to `CC(C)(C=NOCc1ccc(Cl)cc1Cl)C(O)(CCc1ccc(Cl)cc1)Cn1cncn1` (stereo not shown) [Example 29], the “antimycotic action in vitro compared with compound (B)” value in assay [1] is recorded as “better antimycotic action than compound (B)”.

As to `CC(C)(C=NOCc1ccc(Cl)cc1)C(O)(COc1ccc(Cl)c(Cl)c1)Cn1cncn1` (stereo not shown) [Example 30], the “antimycotic action in vitro compared with compound (B)” value in assay [1] was “better antimycotic action than compound (B)”.

For `CON=CC(C)(C)C(O)(CSc1ccc(Cl)cc1)Cn1cncn1` (stereo not shown) [Example 32], the “action (local)” value in assay [3] is “good action”. For the same compound, the “antimycotic action in vitro compared with compound (B)” value in assay [1] is given as “better antimycotic action than compound (B)”. In assay [2], the “action … compared with compounds (A) and (B)” value was “better action than compounds (A) and (B)”.

In the case of `C=CCON=CC(C)(C)C(O)(CSc1ccc(Cl)cc1)Cn1cncn1` (stereo not shown) [Example 33], the “antimycotic action in vitro compared with compound (B)” value in assay [1] was “better antimycotic action than compound (B)”.

As to `CON=CC(C)(C)C(O)(Cn1cncn1)c1ccc(-c2ccccc2)cc1` (stereo not shown) [Example 35], the “antimycotic action in vitro compared with compound (B)” value in assay [1] is “better antimycotic action than compound (B)”.

Turning to `C=CCON=CC(C)(C)C(O)(Cn1cncn1)c1ccc(-c2ccccc2)cc1` (stereo not shown) [Example 36], the “antimycotic action in vitro compared with compound (B)” value in assay [1] is listed as “better antimycotic action than compound (B)”.

`CON=CC(C)(C)C(O)(Cn1cncn1)c1ccc(Cl)cc1` (stereo not shown) [Example 37]: in assay [3], the “action (local)” value was “good action”. Besides, in assay [1], the “antimycotic action in vitro compared with compound (B)” value is reported as “better antimycotic action than compound (B)”. Further, the “action … compared with compounds (A) and (B)” value in assay [2] was “better action than compounds (A) and (B)”.

In the case of `CCCON=CC(C)(C)C(O)(Cn1cncn1)c1ccc(Cl)cc1` (stereo not shown) [Example 38], the “action (local)” value in assay [3] was “good action”. Moreover, the “antimycotic action in vitro compared with compound (B)” value in assay [1] is given as “better antimycotic action than compound (B)”. Further, in assay [2], the “action … compared with compounds (A) and (B)” value is “better action than compounds (A) and (B)”.

On to `CC(C)(C=NOCC1CCCCC1)C(O)(Cn1cncn1)c1ccc(Cl)cc1` (stereo not shown) [Example 39], for which, in assay [2], the “action … compared with compounds (A) and (B)” value is “better action than compounds (A) and (B)”.

On to `CCCCON=CC(C)(C)C(O)(Cn1cncn1)c1ccc(Cl)cc1` (stereo not shown) [Example 40], for which the “action (local)” value in assay [3] is listed as “good action”. In assay [2], the “action … compared with compounds (A) and (B)” value is “better action than compounds (A) and (B)”.

On to `CCCC(O)(Cn1cncn1)C(C)(C)C=NOCc1ccc(Cl)cc1` (stereo not shown) [Example 41], for which the “antimycotic action in vitro compared with compound (B)” value in assay [1] is given as “better antimycotic action than compound (B)”.

Consider `CCCC(O)(Cn1cncn1)C(C)(C)C=NOCc1ccc(Cl)cc1Cl` (stereo not shown) [Example 42], for which, in assay [1], the “antimycotic action in vitro compared with compound (B)” value was “better antimycotic action than compound (B)”.

Consider `CCC(O)(Cn1cncn1)C(C)(C)C=NOCc1ccc(Cl)cc1` (stereo not shown) [Example 43], for which the “antimycotic action in vitro compared with compound (B)” value in assay [1] is on record as “better antimycotic action than compound (B)”.

Regarding `CCCCC(O)(Cn1cncn1)C(C)(C)C=NOCC1CCCCC1` (stereo not shown) [Example 45], in assay [1], the “antimycotic action in vitro compared with compound (B)” value is “better antimycotic action than compound (B)”.

In the case of `CCCCC(O)(Cn1cncn1)C(C)(C)C=NOCc1ccc(Cl)cc1` (stereo not shown) [Example 46], the “antimycotic action in vitro compared with compound (B)” value in assay [1] is “better antimycotic action than compound (B)”.

Take `CCCCC(O)(Cn1cncn1)C(C)(C)C=NOCc1ccc(Cl)cc1Cl` (stereo not shown) [Example 47]: the “antimycotic action in vitro compared with compound (B)” value in assay [1] is reported as “better antimycotic action than compound (B)”.
